“Also recorded” adds a separate entry of the source.

Data set [1] has as its system cultured Chinese hamster cells lacking FALDH. In words: Fatty aldehyde adducts, cytotoxicity and metabolism in cultured FALDH-deficient cells. It is filed as cell-based. An excerpt: (§1) Aldehydes are toxic molecules due to their propensity to covalently attach to proteins and other target molecules containing certain reactive chemical groups. Drugs that detoxify reactive aldehydes are under development for various inflammatory conditions characterized by the excessive formation of aldehydes. […] This clinical trial will investigate the safety and biochemical efficacy of systemic administration of Compound 1 in SLS.
There are no satisfactory animal models of SLS, thereby limiting preclinical testing to in vitro cellular studies. […] The detoxified ADX-102-fatty aldehyde by-products are degraded intracellularly. Thus, treatment of cultured FALDH-deficient cells with ADX-102 bypasses the lost catabolic function of FALDH on aldehydes in SLS and diminishes aldehyde load.

Another data set in a line: Oral absorption. It is filed as in vivo.
Text: as §1

Data set [2] has as its system cultured Chinese hamster cells lacking FALDH. Conditions: cultured FALDH-deficient cells; long-chain (C16-C18) fatty aldehydes; cited from earlier work.
The next data set has as its system SLS subjects. The settings on record: applied topically as a cream; cited from earlier work.
Data set [3] has as its system allergic conjunctivitis and dry eye. Conditions: ophthalmic preparation, Phase-2; cited from earlier work.
Data set [4] is described as follows: Exemplary PK results after oral administration of I-1 unit dosage form, daily dose 20-1200 mg (Table 2). The settings on record: human subject. The format is in vivo. How it is done:
In some embodiments, a unit dosage form described herein that comprises compound I-1, or a pharmaceutically acceptable salt thereof, upon oral administration to a human subject in a daily dose of 20 mg, 50 mg, 100 mg, 200 mg, 400 mg, 700 mg, or 1200 mg (or about such doses, as the case may be), provides a pharmacokinetic result shown in the table below:
In some embodiments, the human subject is a healthy human subject.
In some embodiments, the pharmacokinetic result described herein is obtained in a healthy human subject.

For `CC(C)(O)c1nc2ccc(Cl)cc2cc1N` [ADX-102, 2-[3-amino-6-chloro-quinolin-2-yl]-propan-2-ol], the “fatty aldehyde cytotoxicity and apoptosis” value in data set [1] is “mitigate aldehyde cytotoxicity; also recorded: reverses fatty aldehyde cytotoxicity and apoptosis”. Moreover, the “metabolism of fatty aldehyde to fatty alcohol” value in data set [1] (C18:0, octadecanal, data not shown) was “prevent metabolism of fatty aldehydes to fatty alcohols; also recorded: blocks the metabolism of fatty aldehyde (C18:0, octadecanal) to fatty alcohol”. Also, the “effect on synthesis or degradation of fatty alcohol itself” value in data set [1] (data not shown) is listed as “no effect”. In addition, in “Oral absorption”, the oral absorption entry is recorded as “poor absorption qualities”. Moreover, the “formation of fatty aldehyde covalent adducts with PE (NAPE) / cellular lipids” value in data set [2] is recorded as “block the formation of long-chain (C16-C18) fatty aldehyde adducts with cellular lipids; also recorded: prevents fatty aldehydes from forming covalent adducts with PE (NAPE)”. Also, the ichthyosis entry in the data set on SLS subjects is reported as “improve ichthyosis”. The “clinical activity in allergic conjunctivitis and dry eye” value in data set [3] is “beneficial activity”.

Take `CC(C)(O)c1nc2ccccc2cc1N` [Compound I-1]: the AUCinf amounted to 50.0 ng·h/mL in data set [4] (daily dose 20 mg (or about)); 156 ng·h/mL in data set [4] (daily dose 50 mg (or about)); 433 ng·h/mL in data set [4] (daily dose 100 mg (or about)); 1140 ng·h/mL in data set [4] (daily dose 200 mg (or about)); 2730 ng·h/mL in data set [4] (daily dose 400 mg (or about)); 6710 ng·h/mL in data set [4] (daily dose 700 mg (or about)). In data set [4] (daily dose 1200 mg (or about)), this molecule registered an AUCinf of 14500 ng·h/mL. Further, the highest concentration (Cmax) in data set [4] (daily dose 20 mg (or about)) was determined as 26.4 ng/mL; in data set [4] (daily dose 50 mg (or about)), 56.7 ng/mL; in data set [4] (daily dose 100 mg (or about)), 140 ng/mL; in data set [4] (daily dose 200 mg (or about)) it was 459 ng/mL; in data set [4] (daily dose 400 mg (or about)), 869 ng/mL; in data set [4] (daily dose 700 mg (or about)) it was 2020 ng/mL. In data set [4] (daily dose 1200 mg (or about)), the maximum concentration (Cmax) was 4220 ng/mL. The t1/2 in data set [4] (daily dose 100 mg (or about)) is around 3.52 h; in data set [4] (daily dose 200 mg (or about)) it was around 6.04 h; in data set [4] (daily dose 400 mg (or about)) it was around 6.15 h; in data set [4] (daily dose 700 mg (or about)), around 7.33 h; in data set [4] (daily dose 1200 mg (or about)), around 7.69 h. The oral absorption entry in “Oral absorption” is recorded as “well-absorbed orally”.

By Cmax is commonly meant the peak of the concentration-time curve.

The values are drawn from patent US20250228840A1, “METHODS OF TREATING SJÖGREN-LARSSEN SYNDROME” (Aldeyra Therapeutics, Inc., priority 2022, published 2025).
